The values below come from BindingDB's records for doi:10.1111/j.1747-0285.2007.00514.x (University of Maryland, 2007).

For this assay, the target named is HIV-1 protease (Human immunodeficiency virus, UniProt O90783). The assay is described as follows: Inhibition Assay. From the text: Inhibition assay using HIV protease and Sulfonamide compounds.
HIV-1 protease, sequence (O90783 whole entry): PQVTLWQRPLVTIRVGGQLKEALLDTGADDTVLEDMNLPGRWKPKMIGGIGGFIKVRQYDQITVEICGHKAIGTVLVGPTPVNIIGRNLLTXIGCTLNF

In general, Ki refers to the dissociation constant of the complex between target and ligand, obtained from inhibition or displacement. For `CNC(=O)CCC(=O)N[C@@H](Cc1ccccc1)[C@H](O)CN(C[C@@H](C)O)S(=O)(=O)c1cccc(OC)c1` [CARB-KB32], affinity was put at a Ki of 760 nM. Compound `C[C@@H](O)CN(C[C@@H](O)[C@H](Cc1ccccc1)NC(=O)CC1C=CCC1)S(=O)(=O)c1ccco1` (stereo partly specified) [CARB-KB51] returned a Ki of 260 nM. This Ki lies about 2.9-fold lower than the previous one. Turning to `CC(=N[C@H]1c2ccccc2C[C@H]1O)[C@@H](Cc1ccccc1)C[C@H](O)CN1CCN(Cc2cccnc2)C[C@H]1C(=O)NC(C)(C)C` [IDV], the Ki was determined as 0.18 nM. This Ki is about 1400-fold lower than that of the compound before. The value for `COc1cc(C(=O)N[C@@H](Cc2ccccc2)[C@H](O)CN(C[C@H]2CCCO2)S(=O)(=O)c2cn(C)cn2)ccn1` [CARB-AC97] was 910 nM. For `CNC(=O)CCC(=O)N[C@@H](Cc1ccccc1)[C@H](O)CN(C[C@@H](C)O)S(=O)(=O)c1ccco1` [CARB-KB49] the value was 540 nM. With `COc1cccc(S(=O)(=O)N(CC2CCCO2)C[C@@H](O)[C@H](Cc2ccccc2)NC(=O)c2ccnc(OC)c2)c1` (stereo partly specified) [CARB-AD08], the affinity, expressed as Ki, was 110 nM.
